Reference: patent US20110237606A1, “3-Deazaneplanocin Derivatives” (AGENCY OF SCIENCE, TECHNOLOGY AND RESEARCH, priority 2008, published 2011)
Structures can show the parent of a compound that is named as a salt.

Legend:
colon cancer cells = assay: Apoptosis induction in combination with histone deacetylase inhibitor TSA; format: cell-based; conditions: 48 h
Description: The compound may show activity to activate E2F1-induced apoptosis of at least about 15%, or at least about 20 or 25%, or about 15 to 25%, 15 to 30%, 15 to 20% or 20 to 25%. In this context, transcription factor E2F1, which is involved in the action of tumour suppressing proteins, was engineered with ER receptor ligand binding domain. (ER receptor is a nuclear hormone type of intracellular oestrogen receptor.) The compound may show activity to activate E2F1-induced apoptosis in the presence of 4-OHT of at least about 25% or of at least about 30, 40, 50, 60, 70 or 80%, or of about 25 to about 80%, or about 30 to 80, 50 to 80, 60 to 80 or 50 to 70%, e.g. about 25, 30, 35, 40, 45, 50, 55, 60, 65, 70, 75, 80 or 85%. 4-OHT is 4-hydroxytamoxifen, an anti-estrogenic metabolite of tamoxifen with a much higher affinity for oestrogen receptors than tamoxifen itself. The compound may show apoptosis induction in colon cancer cells with histone deacetylase inhibitor TSA (Trichostatin A) of at least about 40%, or at least about 50, 60, 70 or 80%, or about 40 to about 90%, or about 50 to 90, 70 to 90, 40 to 60 or 50 to 80%, e.g. about 40, 50, 60, 70, 80 or 90%. It may be capable of inhibiting the function of Polycomb repressive complex 2 (PRC2) proteins. In this context, activity % refers to the percentage of cell undergoing apoptosis (death) under the combination drug treatment of DZNep analogue with TSA for 48 h.
The second assay was designed to measure synergistic effect of new compounds with histone deacetylase inhibitor TSA for apoptosis induction in colon cancer cells. DZNep is known to synergy with TSA to induce strong apoptosis in colon cancer cells ((Jiang et al., Cancer Cell, 13, 529-541, 2008). Again the new compounds are compared with DZNep in the context of inducing apoptosis with TSA. Assays were conducted in accordance with Jiang et al (above).

HCT115 ER-E2F1 cells = assay: E2F1-induced apoptosis assay (ER-E2F1 activated by 4-OHT), FACS subG1; format: cell-based; conditions: for E2F1 Induced apoptosis % Apoptosis: without 4-OHT (value before the parentheses), 'No activity'; for E2F1 Induced apoptosis (+4-OHT) % Apoptosis: with 4-OHT (value in parentheses)
Description: Two assays were used to measure the compound's activity in induce apoptosis. The first assay measures the activity of compound to activate E2F1-induced apoptosis. In this assay, transcription factor E2F1 was engineered with ER receptor ligand binding domain. Addition of 4-OHT will be able to activate ER-E2F1 complex activity.
Fluorescence activated cell sorting (FACS) also known as flow cytometry is the technique used to determine apoptosis in this set of experiments. Apoptosis is indicated by cell populations with DNA content in the subG1 range. To determine the activity of these compounds, the inventors used HCT115 ER-E2F1 cells to determine the activity of the compound in inducing E2F1-dependent apoptosis. In this assay, addition of 4-OHT ligand will activate E2F1. DZNep has been show previously to activate OHT-induced apoptosis in this system.

Row | Structure (SMILES) | Combination with HDAC inhibitor TSA % Apoptosis (colon cancer cells) | E2F1 Induced apoptosis % Apoptosis (HCT115 ER-E2F1 cells) | E2F1 Induced apoptosis (+4-OHT) % Apoptosis (HCT115 ER-E2F1 cells) [%]
1 | Nc1ncnc2c1ncn2C1C=CCC1 (racemic) [Compound 29, (±)-9-(cyclopent-2-enyl)-9H-purin-6-amine] | No activity | No activity | 
2 | CC1(C)O[C@H]2[C@H](n3cnc4c(N)ncnc43)CC[C@H]2O1 (racemic) [Compound 30, (±)-9-(2,2-dimethyl-tetrahydro-3aH-cyclopenta[d][1,3]dioxol-4-yl)-9H-purin-6-amine] | No activity | No activity | 
3 | CC1(C)O[C@H]2[C@H](CC[C@H]2n2cnc3c(N)ncnc32)O1 (racemic) [Compound 31, (±)-9-(2,2-dimethyl-tetrahydro-3aH-cyclopenta[d][1,3]dioxol-4-yl)-9H-purin-6-amine] | No activity | No activity | 
4 | Nc1ncnc2c1ncn2[C@@H]1CC[C@@H](O)[C@H]1O (racemic) [Compound 32, (±)-(1R,2S,3R)-3-(6-Amino-9H-purin-9-yl)-1,2-cyclopentanediol hydrochloride] |  |  | 44
5 | Nc1ncnc2c1ncn2[C@@H]1CC[C@H](O)[C@@H]1O (racemic) [Compound 33, (±)-(1R,2S,3S)-3-(6-Amino-9H-purin-9-yl)-1,2-cyclopentanediol hydrochloride] | No activity | No activity | 
6 | CC1(C)O[C@@H]2[C@H](O1)C(COC(c1ccccc1)(c1ccccc1)c1ccccc1)=C[C@H]2n1cnc2c(Cl)nccc21 [Compound 1] |  | No activity | 
7 | CC1(C)O[C@@H]2[C@H](O1)C(COC(c1ccccc1)(c1ccccc1)c1ccccc1)=C[C@H]2n1cnc2cncc(Cl)c21 [Compound 2] |  | No activity | 
8 | OCC1=C[C@@H](n2cnc3c(Cl)nccc32)[C@H](O)[C@@H]1O [Compound 3] | No activity | No activity | 
9 | OCC1=C[C@@H](n2cnc3ccnc(Cl)c32)[C@H](O)[C@@H]1O [Compound 4] | No activity | No activity | 
10 | COC(=O)c1cn([C@@H]2C=C(CO)[C@@H](O)[C@H]2O)nn1 [Compound 5] | No activity | No activity | 
11 | COC(=O)c1cn([C@@H]2C=C(CO)[C@@H](O)[C@H]2O)cn1 [Compound 6] | No activity | No activity | 
12 | COC(=O)c1ncn([C@@H]2C=C(CO)[C@@H](O)[C@H]2O)n1 [Compound 7] | No activity | No activity | 
13 | O=C(c1ccccc1)n1c(=O)ccn([C@@H]2C=C(CO)[C@@H](O)[C@H]2O)c1=O [Compound 8] | No activity | No activity | 
14 | Cc1cn([C@@H]2C=C(CO)[C@@H](O)[C@H]2O)c(=O)n(C(=O)c2ccccc2)c1=O [Compound 9] | No activity | No activity | 
15 | Cc1cn([C@@H]2C=C(CO)[C@@H](O)[C@H]2O)c(=O)[nH]c1=O [Compound 10] | No activity | No activity | 
16 | O=c1[nH]cnc2c1ncn2[C@@H]1C=C(CO)[C@@H](O)[C@H]1O [Compound 11] | No activity | No activity | 

Row | Structure (SMILES) | Combination with HDAC inhibitor TSA % Apoptosis (colon cancer cells) | E2F1 Induced apoptosis % Apoptosis (HCT115 ER-E2F1 cells) | E2F1 Induced apoptosis (+4-OHT) % Apoptosis (HCT115 ER-E2F1 cells) [%]
17 | O=c1ccn([C@@H]2C=C(CO)[C@@H](O)[C@H]2O)c(=O)[nH]1 [Compound 12] | No activity | No activity | 
18 | NC(=O)c1ncn([C@@H]2C=C(CO)[C@@H](O)[C@H]2O)n1 [Compound 13] | No activity | No activity | 
19 | NC(=O)c1cn([C@@H]2C=C(CO)[C@@H](O)[C@H]2O)cn1 [Compound 14] | No activity | No activity | 
20 | CC1(C)O[C@@H]2[C@H](O1)C(COC(c1ccccc1)(c1ccccc1)c1ccccc1)=C[C@@H]2O [Compound 15] | No activity | No activity | 
21 | CC1(C)O[C@@H]2[C@H](O1)C(COC(c1ccccc1)(c1ccccc1)c1ccccc1)=C[C@H]2n1cnc2c(N)ncnc21 [Compound 16] | No activity | No activity | 
22 | COC(=O)c1cn([C@@H]2C=C(COC(c3ccccc3)(c3ccccc3)c3ccccc3)[C@H]3OC(C)(C)O[C@H]32)cn1 [Compound 17] | No activity | No activity | 
23 | Cc1cn([C@@H]2C=C(COC(c3ccccc3)(c3ccccc3)c3ccccc3)[C@H]3OC(C)(C)O[C@H]32)c(=O)n(C(=O)c2ccccc2)c1=O [Compound 18] | No activity | No activity | 
24 | CC1(C)O[C@@H]2[C@H](O1)C(COC(c1ccccc1)(c1ccccc1)c1ccccc1)=C[C@H]2n1ccc(=O)n(C(=O)c2ccccc2)c1=O [Compound 19] | No activity | No activity | 
25 | CC1(C)O[C@@H]2[C@H](O1)C(COC(c1ccccc1)(c1ccccc1)c1ccccc1)=C[C@H]2n1cnc2c(Cl)ncnc21 [Compound 20] | No activity | No activity | 
26 | Nc1nccc2c1ncn2[C@@H]1C=C(CO)[C@@H](O)[C@H]1O [Compound 22, 3-Deazaneplanocin A, reference compound] |  |  | 65
27 | CC1(C)O[C@@H]2[C@H](O1)C(CO)=C[C@H]2n1cnc2c(N)nccc21 [Compound 23, 2′,3′-O-Isopropylidene-3-deazaneplanocin A] | No activity |  | 25
28 | Cl.Nc1nccc2c1ncn2[C@@H]1C[C@H](CO)[C@@H](O)[C@H]1O [Compound 24, 3-Deazaaristeromycin hydrochloride] | 70% | 28% | 60
29 | CC1=C[C@@H](n2cnc3c(N)ncnc32)[C@H](O)[C@@H]1O [Compound 26, (1S,2R,5R)-5-(6-amino-9H-purin-9-yl)-3-methylcyclopent-3-ene-1,2-diol hydrochloride] |  |  | 40
30 | Nc1ncnc2c1ncn2[C@@H]1C=C(COC(=O)c2ccccc2)[C@@H](O)[C@H]1O [Compound 27, ((3R,4S,5R)-3-(6-amino-9H-purin-9-yl)-4,5-dihydroxycyclopent-1-enyl)methyl benzoate hydrochloride] |  |  | 30
31 | CC1(C)O[C@@H]2[C@H](O1)C(CO)=C[C@H]2n1cnc2c(N)ncnc21 [Compound 28] | No activity | No activity | 
